In patent US8592594B2, “Tetrahydro-quinoline derivatives” (Hoffmann-La Roche Inc., priority 2010, dated 2013):

Each compound was assayed on recombinant AMPK proteins (α1β1γ1, α2β1γ1, α1(1-335), α1(1-394) or α2(1-394)) (assay: Scintillation Proximity Assay (SPA), AMPK activation). Details: effective concentration of activator for 50% of maximal enzyme activity; 50 nM AMPK, 2 μM ATP, 2 μM biotin-SAMS, 30° C., 2 hours.
Assay type: biochemical, human
Protocol: Recombinant human AMPK α1β1γ1, α2β1γ1 or AMPK α subunit truncations α1(1-335), α1(1-394) and α2(1-394) were constructed, expressed and purified as described previously (Pang, T., Zhang, Z. S., Gu, M., Qiu, B. Y., Yu, L. F., Cao, P. R., Shao, W., Su, M. B., Li, J. Y., Nan, F. J., and Li, J. (2008). Rat liver AMPK heterotrimer enzyme was obtained from Upstate (Billerica, Mass., U.S.A.).
Scintillation Proximity Assay
Before the Scintillation Proximity Assay (SPA) assay, 200 nM recombinant AMPK proteins (α1β1γ1, α2β1γ1, α1(1-335), α1(1-394) or α2(1-394)) were fully phosphorylated as described previously (Pang et al., 2008). SPA reactions were performed in 96-well plates at a final volume of 50 μL containing 20 mM Tris-HCl pH 7.5, 5 mM MgCl2, 1 mM DTT, 2 μM biotin-SAMS, 2 μM ATP, 0.2 μCi/well [γ-^33P]ATP, and various amount of activator. Reactions were initiated by the addition of 50 nM recombinant AMPK proteins to the reaction solutions and incubated at 30° C. for 2 hours. After that, reactions were terminated by the addition of 40 μL stop solution containing 80 μg streptavidin-coated SPA beads per well, 50 mM ED TA, 0.1% Triton X-100 in PBS, pH 7.5 and incubated for 1 hour. Finally, a 160 μL suspension solution containing 2.4 M CsCl, 50 mM EDTA, and 0.1% Triton X-100 in PBS (pH 7.5) was added to the reaction solution to suspend SPA beads completely. SPA signals were determined with a Wallac MicroBeta plate counter (PerkinElmer) 30 min later for calculation of the amount of product formed. The amount of products formed in 2 hour was plotted against activator concentrations to determine the effective concentration of the activator (EC50) required for 50% of maximal enzyme activity.

EC50 | SMILES
8.61 µM | CC1(C)CC(C(C)(C)c2ccccc2)Nc2ccc(C(=O)O)cc21 (stereo not shown) [Example 16, 4,4-Dimethyl-2-(1-methyl-1-phenyl-ethyl)-1,2,3,4-tetrahydro-quinoline-6-carboxylic acid]
4.54 µM | CC1(C)CC(c2cc(Cl)ccc2F)Nc2cc(Cl)c(C(=O)O)cc21 (stereo not shown) [Example 17, 7-Chloro-2-(5-chloro-2-fluoro-phenyl)-4,4-dimethyl-1,2,3,4-tetrahydro-quinoline-6-carboxylic acid]
4.58 µM | CC1(C)CC(c2cc(Cl)ccc2F)Nc2ccc(CC(=O)O)cc21 (stereo not shown) [Example 18, [2-(5-Chloro-2-fluoro-phenyl)-4,4-dimethyl-1,2,3,4-tetrahydro-quinolin-6-yl]-acetic acid]
2.13 µM | C=CC1(C)CC(c2ccc(F)c(Cl)c2)Nc2ccc(C(=O)O)cc21 (stereo not shown) [Example 19, 2-(3-Chloro-4-fluoro-phenyl)-4-methyl-4-vinyl-1,2,3,4-tetrahydro-quinoline-6-carboxylic acid]
3.31 µM | CC1(c2ccccc2)CC(c2ccc(F)c(Cl)c2)Nc2ccc(C(=O)O)cc21 (stereo not shown) [Example 20, 2-(3-Chloro-4-fluoro-phenyl)-4-methyl-4-phenyl-1,2,3,4-tetrahydro-quinoline-6-carboxylic acid]
5.35 µM | CC1(C)CC(c2cccc(N3CCOCC3)c2)Nc2ccc(C(=O)O)cc21 (stereo not shown) [Example 22, 4,4-Dimethyl-2-(3-morpholin-4-yl-phenyl)-1,2,3,4-tetrahydro-quinoline-6-carboxylic acid]
7.02 µM | CC(C)N1CCN(c2cccc(C3CC(C)(C)c4cc(C(=O)O)ccc4N3)c2)CC1 (stereo not shown) [Example 23, 2-[3-(4-Isopropyl-piperazin-1-yl)-phenyl]-4,4-dimethyl-1,2,3,4-tetrahydro-quinoline-6-carboxylic acid]
4.83 µM | C=CC1(C)CC(c2ccc(F)c(Cl)c2)Nc2ccc(C(=O)O)nc21 (stereo not shown) [Example 25, 6-(3-Chloro-4-fluoro-phenyl)-8-methyl-8-vinyl-5,6,7,8-tetrahydro-[1,5]naphthyridine-2-carboxylic acid]
2.1 µM | CCC1(C)CC(c2ccc(F)c(Cl)c2)Nc2ccc(C(=O)O)nc21 (stereo not shown) [Example 26, 6-(3-Chloro-4-fluoro-phenyl)-8-ethyl-8-methyl-5,6,7,8-tetrahydro-[1,5]naphthyridine-2-carboxylic acid]
1.49 µM | CCC1(C)CC(c2ccc(F)c(Cl)c2)N(CCC(C)C)c2ccc(C(=O)O)nc21 (stereo not shown) [Example 27, 6-(3-Chloro-4-fluoro-phenyl)-8-ethyl-8-methyl-5-(3-methyl-butyl)-5,6,7,8-tetrahydro-[1,5]naphthyridine-2-carboxylic acid]
11.4 µM | Cc1ccc(F)cc1C1CC2(CC2)c2cc(C(=O)NC3CCC3)ccc2N1 (stereo not shown) [Example 28, 2-(5-Fluoro-2-methyl-phenyl)-spiro(cyclopropane-1,4′-1′,2′,3′,4′-tetrahydroquinoline)-6-carboxylic acid cyclobutylamide]
2.47 µM | Cc1ccc(F)cc1C1CC2(CC2)c2cc(C(=O)N3CCOCC3)ccc2N1 (stereo not shown) [Example 30, [2-(5-Fluoro-2-methyl-phenyl)-spiro(cyclopropane-1,4′-1′,2′,3′,4′-tetrahydroquinolin)-6-yl]-morpholin-4-yl-methanone]
2.58 µM | Cc1ccc(F)cc1C1CC2(CC2)c2cc(C(=O)N3CCN(C)CC3)ccc2N1 (stereo not shown) [Example 31, [2-(5-Fluoro-2-methyl-phenyl)-spiro(cyclopropane-1,4′-1′,2′,3′,4′-tetrahydroquinolin)-6-yl]-(4-methyl-piperazin-1-yl)-methanone]
1.24 µM | O=C(c1ccc2c(c1)C1(CC1)CC(c1cc(F)ccc1Br)N2)N1CCOCC1 (stereo not shown) [Example 32, [2-(2-Bromo-5-fluoro-phenyl)-spiro(cyclopropane-1,4′-1′,2′,3′,4′-tetrahydroquinolin)-6-yl]-morpholin-4-yl-methanone]
13.6 µM | CC(C)NC(=O)c1ccc2c(c1)C1(CC1)CC(c1cc(F)ccc1Br)N2 (stereo not shown) [Example 33, 2-(2-Bromo-5-fluoro-phenyl)-spiro(cyclopropane-1,4′-1′,2′,3′,4′-tetrahydroquinoline)-6-carboxylic acid isopropylamide]
2.71 µM | CN(C)C(=O)c1ccc2c(c1)C1(CC1)CC(c1cc(F)ccc1Br)N2 (stereo not shown) [Example 34, 2-(2-Bromo-5-fluoro-phenyl)-spiro(cyclopropane-1,4′-1′,2′,3′,4′-tetrahydroquinoline)-6-carboxylic acid dimethylamide]

EC50 | SMILES
6.88 µM | O=C(NC1CCC1)c1ccc2c(c1)C1(CC1)CC(c1cc(F)ccc1Br)N2 (stereo not shown) [Example 35, 2-(2-Bromo-5-fluoro-phenyl)-spiro(cyclopropane-1,4′-1′,2′,3′,4′-tetrahydroquinoline)-6-carboxylic acid cyclobutylamide]
5.63 µM | O=C(NC1CCC1)c1ccc2c(c1)C1(CC1)CC(c1cc(Br)ccc1F)N2 (stereo not shown) [Example 36, 2-(5-Bromo-2-fluoro-phenyl)-spiro(cyclopropane-1,4′-1′,2′,3′,4′-tetrahydroquinoline)-6-carboxylic acid cyclobutylamide]
13.9 µM | O=C(NC1CC1)c1ccc2c(c1)C1(CC1)CC(c1cc(Cl)ccc1Cl)N2 (stereo not shown) [Example 37, 2-(2,5-Dichloro-phenyl)-spiro(cyclopropane-1,4′-1′,2′,3′,4′-tetrahydroquinoline)-6-carboxylic acid cyclopropylamide]
2.38 µM | CNC(=O)c1ccc2c(c1)C1(CC1)CC(c1cc(Cl)ccc1Cl)N2 (stereo not shown) [Example 38, 2-(2,5-Dichloro-phenyl)-spiro(cyclopropane-1,4′-1′,2′,3′,4′-tetrahydroquinoline)-6-carboxylic acid methylamide]
4.95 µM | O=C(NC1CCC1)c1ccc2c(c1)C1(CC1)CC(c1cc(Cl)ccc1Cl)N2 (stereo not shown) [Example 39, 2-(2,5-Dichloro-phenyl)-spiro(cyclopropane-1,4′-1′,2′,3′,4′-tetrahydroquinoline)-6-carboxylic acid cyclobutylamide]
3.69 µM | O=C(c1ccc2c(c1)C1(CC1)CC(c1cc(Cl)ccc1Cl)N2)N1CCOCC1 (stereo not shown) [Example 40, [2-(2,5-Dichloro-phenyl)-spiro(cyclopropane-1,4′-1′,2′,3′,4′-tetrahydroquinolin)-6-yl]-morpholin-4-yl-methanone]
5.17 µM | CC(C)NC(=O)c1ccc2c(c1)C1(CC1)CC(c1cc(Cl)ccc1Cl)N2 (stereo not shown) [Example 41, 2-(2,5-Dichloro-phenyl)-spiro(cyclopropane-1,4′-1′,2′,3′,4′-tetrahydroquinoline)-6-carboxylic acid isopropylamide]
3.77 µM | CS(=O)(=O)N1CCN(C(=O)c2ccc3c(c2)C2(CC2)CC(c2cc(Cl)ccc2Cl)N3)CC1 (stereo not shown) [Example 42, [2-(2,5-Dichloro-phenyl)-spiro(cyclopropane-1,4′-1′,2′,3′,4′-tetrahydroquinolin)-6-yl]-(4-methanesulfonyl-piperazin-1-yl)-methanone]
5.86 µM | O=C(NC1CCC1)c1ccc2c(c1)C1(CC1)CC(c1cc(Cl)cc(Cl)c1)N2 (stereo not shown) [Example 43, 2-(3,5-Dichloro-phenyl)-spiro(cyclopropane-1,4′-1′,2′,3′,4′-tetrahydroquinoline)-6-carboxylic acid cyclobutylamide]
3.02 µM | O=C(c1ccc2c(c1)C1(CC1)CC(c1cc(Cl)ccc1F)N2)N1CCOCC1 (stereo not shown) [Example 44, [2-(5-Chloro-2-fluoro-phenyl)-spiro(cyclopropane-1,4′-1′,2′,3′,4′-tetrahydroquinolin)-6-yl]-morpholin-4-yl-methanone]
1.76 µM | CN(C)C(=O)c1ccc2c(c1)C1(CC1)CC(c1cc(Cl)ccc1F)N2 (stereo not shown) [Example 45, 2-(5-Chloro-2-fluoro-phenyl)-spiro(cyclopropane-1,4′-1′,2′,3′,4′-tetrahydroquinoline)-6-carboxylic acid dimethylamide]
7.62 µM | O=C(NC1CCC1)c1ccc2c(c1)C1(CC1)CC(c1cc(Cl)ccc1F)N2 (stereo not shown) [Example 46, 2-(5-Chloro-2-fluoro-phenyl)-spiro(cyclopropane-1,4′-1′,2′,3′,4′-tetrahydroquinoline)-6-carboxylic acid cyclobutylamide]
11.4 µM | CC(C)NC(=O)c1ccc2c(c1)C1(CC1)CC(c1cc(Cl)ccc1F)N2 (stereo not shown) [Example 47, 2-(5-Chloro-2-fluoro-phenyl)-spiro(cyclopropane-1,4′-1′,2′,3′,4′-tetrahydroquinoline)-6-carboxylic acid isopropylamide]
2.1 µM | O=C(c1ccc2c(c1)C1(CC1)CC(c1cc(F)ccc1Br)N2)N1CCNCC1 (stereo not shown) [Example 48]
3.23 µM | CNC(=O)c1ccc2c(c1)C1(CC1)CC(c1c(C)cc(F)cc1Br)N2 (stereo not shown) [Example 49, 2-(2-Bromo-4-fluoro-6-methyl-phenyl)-spiro(cyclopropane-1,4′-1′,2′,3′,4′-tetrahydroquinoline)-6-carboxylic acid methylamide]
